Data taken from PubChem BioAssay (NCI).
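Compound exposure: 48 hours, 5 concentrations, 96-well plates. TGI: concentration producing complete growth inhibition.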

Columns and labels:
Test in all cases: NCI-60 cell line screen, 48 h
K-562 leukemia = system: K-562 leukemia
SNB-75 CNS = system: SNB-75 CNS
SF-268 CNS = system: SF-268 CNS
UACC-62 melanoma = system: UACC-62 melanoma
SNB-19 CNS = system: SNB-19 CNS
MALME-3M melanoma = system: MALME-3M melanoma
786-0 renal = system: 786-0 renal
LOX IMVI melanoma = system: LOX IMVI melanoma
T-47D breast = system: T-47D breast
MDA-MB-435 = system: MDA-MB-435
MCF7 breast = system: MCF7 breast
NCI-H522 lung = system: NCI-H522 lung
SR leukemia = system: SR leukemia
NCI-H460 lung = system: NCI-H460 lung
HT29 colon = system: HT29 colon
UO-31 renal = system: UO-31 renal

SMILES	TGI (K-562 leukemia)	TGI (SNB-75 CNS)	TGI (SF-268 CNS)	TGI (UACC-62 melanoma)	TGI (SNB-19 CNS)	TGI (MALME-3M melanoma)	TGI (786-0 renal)	TGI (LOX IMVI melanoma)	TGI (T-47D breast)	TGI (MDA-MB-435)	TGI (MCF7 breast)	TGI (NCI-H522 lung)	TGI (SR leukemia)	TGI (NCI-H460 lung)	TGI (HT29 colon)	TGI (UO-31 renal)
CCCCn1c(C)c(C)c2c1NN=C(C#N)S2(=O)=O	> 100 µM	> 100 µM	> 100 µM	> 100 µM	> 100 µM	> 100 µM	> 100 µM	> 100 µM	> 100 µM	> 100 µM	> 100 µM	> 100 µM	> 100 µM	> 100 µM	> 100 µM	> 100 µM
COc1ccc(C[C@H]2NC[C@H](OC(C)=O)[C@H]2OC(C)=O)cc1	51.6 µM	0.362 µM	0.308 µM	4.23 µM	0.446 µM	0.561 µM	1.05 µM	0.331 µM	0.7 µM	1.23 µM	> 100 µM	0.289 µM	3.45 µM	1.44 µM	1.04 µM	0.371 µM
CC(=O)O[C@H]1CC[C@@]2(C)C(=CC[C@H]3[C@@H]4C[C@H](N5CCN(C)CC5)[C@H](OC(C)=O)[C@@]4(C)CC[C@@H]32)C1	4.07 µM	62.6 µM	42.7 µM	26.4 µM	58.9 µM	24.8 µM	35.3 µM	7.83 µM	41.2 µM	19.2 µM	15.3 µM	34.9 µM	11.4 µM	49.4 µM	12.8 µM	> 90.9 µM
